These results are taken from patent USRE38352E1, “Polymerase chain reaction assays for monitoring antiviral therapy and making therapeutic decisions in the treatment of acquired immunodeficiency syndrome” (priority 1992, dated 2003).

The subject of experiment [1] is HIV virus stock from patient PBMC. In words: AZT sensitivity assay (inhibition of P24 production in donor PBMC). Format: cell-based. The conditions noted are these: Human immunodeficiency virus 1, PBMC. The protocol:
Patient PBMC were cocultured with mitogen-stimulated PBMC from healthy HIV-seronegative donors. Supernatants from these cultures were collected and frozen when the HIV P24 antigen concentration exceeded 10,000 pg/ml. 30-100 TCID50 (50% tissue culture infectious dose) of virus stock was used to infect one million donor PBMC pretreated with different concentrations of AZT (0.0 μM, 0.005 μM, 0.05 μM, 0.5 μM, 5.0 μM). After 7 days, P24 antigen was measured in the cell free supernatant from the cultures with and without zidovudine. The concentration of AZT required to inhibit P24 production by 90% (IC90) as compared to the drug free cultures was determined by nonlinear regression analysis (Chou et al., 1984, Adv. Enzyme Regulation 22:27-55).
All comparisons between the patients with mutant and wild type strains were performed using the student's t-test. The calculations on the IC90s determined by the zidovudine sensitive assay were performed using the logl10 transformed IC90 (i.e., geometric means were used rather than arithmetic means).

In experiment [2] the test system is plasma HIV RNA. In words: Plasma HIV RNA copy number by cDNA gene amplification (PCR) and enzyme-linked affinity assay. It counts as in vivo, human (HIV antibody-positive subjects). The text has this: After informed consent was obtained, whole blood samples were collected by venipuncture in the presence of acid-citrate-dextrose as an anticoagulant. A single plasma sample was collected from 39 HIV antibody-positive subjects who were not receiving antiretroviral therapy at the time of collection and from 33 HIV antibody-positive subjects who were currently on and had received AZT for a minimum of 3 mo.
Two plasma samples were collected from an additional 27 subjects before and 1 month after initiation of dideoxynucleoside therapy. 18 of these subjects received 500 mg/d of AZT orally. Seven subjects received a combination of zidovudine (150-600 mg/d) and 2′,3′-dideoxyinosine (ddI) (134-500 mg/d). Two patients received 500 mg/d of ddI alone (see Table I for individual subject characteristics). Finally, nine of these subjects had two plasma samples taken 1-3 wk. before initiating antiretroviral therapy and two plasma samples taken 1 and 2 mo. after commencing therapy. Plasma was separated within 4 h. by centrifugation at 500 g for 10 min. A second centrifugation was performed on the plasma at 500 g for 30 min. to remove any cellular material. 200 μl of plasma was then mixed with 200 μl of a solution containing 5M guanidinium thiocyanate, vortexed briefly, and stored at −70° C. until further use. All samples were assayed within 3 mo. of collection. To decrease variance, all specimens to be compared from the same subject were run in the same assay.
RNA was extracted from plasma by the method described in Chomczynski et al., 1987, Ann. Biochem. 162:156-159. Briefly, 200 μl of clarified plasma to which 200 μl of 5M guanidinium thiocyanate had previously been added was extracted with phenol/chloroform and precipitated with isopropanol. The resulting pellet was then washed in 75% ethanol, dried, and brought up in diethylpyrocarbonate treated, glass distilled water.
HIV RNA was transcribed to cDNA using Moloney murine leukemia virus reverse transcriptase (Bethesda Research Laboratories, Gaithersburg, Md.) by the method described in Kawasaki, 1990, “In PCR Protocols: A Guide to Methods and Applications” pp. 21-27, M. A. Innis, D. H. Gelfand, J. J. Sninsky, and T. J. White, eds. Academic Press, Berkeley, Calif. Oligomers used for amplification included SK38, SK39, and SK19 (Kellog et al., 1990, “In PCR Protocols: A Guide to Methods and Applications,” pp. 337-348, M. A. Innis, D. H. Gelfand, J. J. Sninsky, and T. J. White, eds. Academic Press, Berkeley, Calif.). Biotinylation of SK38 and horseradish peroxidase (HRP) labeling of probe SK19 were prepared as described in Levenson et al., 1990, “In PCR Protocols: A Guide to Methods and Applications,” pp. 99-112M. S. Innis, D. H. Gelfand, J. J. Sninsky, and T. J. White, eds. Academic Press, Berkeley, Calif. Amplification of HIV cDNA was carried out as follows: to a 100-μl reaction mixture was added the cDNA, 50 pmol of primers SK38 and SDK39, […] of each dNTP, 10 mM Tris (pH 8.3), 2.5 mM MgCl2, 50 mM KCl, and 2.5 U of recombiTaq DNA polymerase (Perkin-Elmer Cetus, Norwalk, Conn.). The mixture was then overlaid with 50 μl of mineral oil. Tubes were placed in a DNA thermal cycler (Perkin-Elmer Cetus) for 30 cycles of amplification with the following program: 95° C./30 s, 55° C./30s, and 72° C./60 s for denaturation, annealing, and extension, respectively. Negative and positive controls which included both high and low copy number HIV RNA and DNA were added at each step.
To detect and quantitate PCR product, 96-well microplates (Maxisorp; Nunc, Naperville, Ill.) were coated with 100 μl of a 0.1 mg/ml solution of avidin (Sigma Chemical Co., St. Louis, Mo.) in 50 mM Na2CO3 (pH 9.6) overnight at room temperature. Wells were then washed twice with PBS. Wells were then filled with 300 μl of a blocking solution containing 5X Denhardt's solution, 1% gelatin (Sigma), […] sheared herring sperm DNA (Promega Biotec, Madison, Wis.) at least overnight at 4° C. […]

In experiment [3] the test system is plasma HIV RNA. The conditions noted are these: patients receiving AZT; ultracentrifugation, 40 cycles (Ottman et al.); cited from earlier work.

The structures appear in SMILES notation. Values joined by “and” are separate entries in the source; they are usually repeats but may differ in a detail not shown here. Equal entries are not always repeated. Where two headings read alike, the source gives them in different places.

For `Cc1cn([C@H]2C[C@H](N=[N+]=[N-])[C@@H](CO)O2)c(=O)[nH]c1=O` [AZT, zidovudine], the concentration for an effect of 90% (IC90) is 2 to 38 nM in experiment [1] (168 h, isolates from AZT-naive patients, 7 days, read-out: IC90 (inhibition of P24 production by 90%), range); 30 to 8000 nM in experiment [1] (nine patients with a mutation at codon 215, read-out: IC90 range); 20 to 280 nM in experiment [1] (read-out: IC90 range, eight patients with wild type form at codon 215); 40 nM in experiment [1] (read-out: geometric mean IC90, eight patients with wild type form at codon 215, post-treatment PBMC); 410 nM in experiment [1] (read-out: geometric mean IC90, nine patients with a mutation at codon 215). The “mean HIV RNA copy number” value is 295±5 per 200 μl of plasma in experiment [2] (14 subjects on AZT with CD4 count <200/mm^3) and 16±5 per 200 μl of plasma in experiment [2] (19 subjects on AZT with CD4 count >200/mm^3, below level of detection). Besides, in experiment [2] (33 subjects currently on AZT (minimum 3 mo), mean±SEM, untreated 690±360), the “mean plasma HIV RNA copy number” value is 134±219 per 200 μl of plasma. Moreover, the “subjects with positive HIV RNA signal” value is recorded as 9 of 14 in experiment [2] (AZT-treated subjects with <200 CD4 cells) and 16 of 33 in experiment [2] (all subjects receiving AZT, untreated 32 of 39). The “Post HIV RNA” value in experiment [2] (in vivo) was 2769/437 copy number/200 μl of plasma; in experiment [2] (individual patient, 1 mo after initiation, AZT 500 mg/d), 77 copy number/200 μl of plasma and 57 copy number/200 μl of plasma and 42 copy number/200 μl of plasma and 94/94 copy number/200 μl of plasma and 0/0 copy number/200 μl of plasma (2×) and 65 copy number/200 μl of plasma and 52 copy number/200 μl of plasma and 50 copy number/200 μl of plasma and 45 copy number/200 μl of plasma and 95/95 copy number/200 μl of plasma and 0 copy number/200 μl of plasma (3×) and 72 copy number/200 μl of plasma and 925 copy number/200 μl of plasma and 90 copy number/200 μl of plasma. Further, the “Pre HIV RNA” value in experiment [2] (in vivo) was 2769/437 copy number/200 μl of plasma; in experiment [2] (individual patient, before initiation of therapy) it was 100 copy number/200 μl of plasma and 87 copy number/200 μl of plasma and 40 copy number/200 μl of plasma and 94/94 copy number/200 μl of plasma and 0/0 copy number/200 μl of plasma (2×) and 93 copy number/200 μl of plasma and 105 copy number/200 μl of plasma and 123 copy number/200 μl of plasma and 78 copy number/200 μl of plasma and 95/95 copy number/200 μl of plasma and 301 copy number/200 μl of plasma and 958 copy number/200 μl of plasma and 2014 copy number/200 μl of plasma and 106 copy number/200 μl of plasma and 130 copy number/200 μl of plasma and 550 copy number/200 μl of plasma. In experiment [2] (in vivo), the “subjects with detectable HIV RNA signal” value is reported as 7 of 19. In addition, the “patients with detectable plasma HIV RNA signal” value in experiment [3] is reported as 24 of 25.

As a reminder, the IC90 is the concentration needed for an effect of 90%.
